Consider 69 substances from patent US20250179481A1, “COMPOSITIONS AND METHODS FOR TARGETING, EDITING, OR MODIFYING GENES” (Celyntra Therapeutics SA, priority 2021, published 2025).

The test system of one series is human genes. Put plainly: Editing efficiency of tested crRNAs / guide nucleic acids (Tables 7-10) detected in human cells. Format: cell-based. Particulars: Target Gene PD; tested crRNAs targeting human genes.
For “gPD_23: spacer targeting PDCD1, SEQ ID NO 210, TCTGCAGGGACAATAGGAGCC (chemistry not given here)”, the “% Indel” value is on record as 57.6%.

Still in this series, the particulars now being: Target Gene PTPN6; tested crRNAs targeting human genes.
Consider “gPTPN6_9 (guide CCTGACGCTGCCTTCTCTAGG; chemistry not given here)”, for which the “% Indel” value is reported as 0.8%.
Same read-out and setting: for “gPTPN6_8 (guide AGGTGGATGATGGTGCCGTCG; chemistry not given here)” the value was 3.5%.

Still in this series, the particulars now being: Target Gene TIGIT; tested crRNAs targeting human genes.
Take “gTIGIT_30 (guide TGTAACTCAGGACATTGAAGT; chemistry not given here)”: the “% Indel” value is listed as 0.5%.
On the same count and under the same terms, then “gTIGIT_10 (guide TAATGCTGACTTGGGGTGGCA; chemistry not given here)”, with 1.6%; and “gTIGIT_26 (guide CACAGAATGGATTCTGAGGGC; chemistry not given here)”, with 0.3%; and “gTIGIT_27 (guide CTCCTGAGGTCACCTTCCACA; chemistry not given here)”, with 1.6%.
Still for that read-out and setting: for “gTIGIT_3 (guide GTCCTCTTCCCTAGGAATGAT; chemistry not given here)” the value was 1.3%; for “gTIGIT_12 (guide AAGGATGGGGAGATGTGCCAC; chemistry not given here)”, 0.4%; for “gTIGIT_15 (guide TAGGACCTCCAGGAAGATTCT; chemistry not given here)”, 0.4%.
Turning to “gTIGIT_24 (guide TTTTTAGAAGAAAGCCCTCAG; chemistry not given here)”, the “% Indel” value turned out to be 0.4%.
Still for that read-out and setting: for “gTIGIT_8 (guide TGCCGTGGTGGAGGAGAGGTG; chemistry not given here)” the value was 0.3%; for “gTIGIT_28 (guide CTGGGGGTGAGGGAGCACTGG; chemistry not given here)”, 0.5%; for “gTIGIT_22 (guide TAGTTTGTTTGTTTTTAGAAG; chemistry not given here)”, 0.6%.
On the same count and under the same terms, then “gTIGIT_9 (guide TGGCCATTTGTAATGCTGACT; chemistry not given here)”, with 0.8%; and “gTIGIT_11 (guide GGGTGGCACATCTCCCCATCC; chemistry not given here)”, with 9.7%.
The same measure, in the same setting: then “gTIGIT_25 (guide TAGAAGAAAGCCCTCAGAATC; chemistry not given here)”, with 1.2%; and “gTIGIT_7 (guide TGCAGAGAAAGGTGGCTCTAT; chemistry not given here)”, with 6%.
For the substance “gTIGIT_16 (guide CTAGGACCTCCAGGAAGATTC; chemistry not given here)”, the “% Indel” value is 0.5%.
Still for that read-out and setting: then “gTIGIT_18 (guide GTCCTCCCTCTAGTGGCTGAG; chemistry not given here)”, with 72.4%.
Still for that read-out and setting: for “gTIGIT_31 (guide AATGTCCTGAGTTACAGAAGC; chemistry not given here)” the value was 0.5%; for “gTIGIT_23 (guide TTTGTTTTTAGAAGAAAGCCC; chemistry not given here)”, 1%; for “gTIGIT_17 (guide CTCCAGCAGGAATACCTGAGC; chemistry not given here)”, 0.8%.
For “gTIGIT_13 (guide AAGGATCGAGTGGCCCCAGGT; chemistry not given here)”, the “% Indel” value is 0.2%.
For “gTIGIT_1 (guide CCTGAGGCGAGGGGAGCCTGC; chemistry not given here)”, the “% Indel” value was found to be 0.2%.
On the same count and under the same terms, for “gTIGIT_4 (guide TATTGTGCCTGTCATCATTCC; chemistry not given here)” the value was 1%; for “gTIGIT_20 (guide TAGTCAACGCGACCACCACGA; chemistry not given here)”, 0.1%.
As to “gTIGIT_19 (guide GAGCCATGGCCGCGACGCTGG; chemistry not given here)”, the “% Indel” value was found to be 0.9%.
On the same count and under the same terms, then “gTIGIT_2: spacer targeting TIGIT, SEQ ID NO 302, AGGCCTTACCTGAGGCGAGGG (chemistry not given here)”, with 81.7%.
Same read-out and setting: for “gTIGIT_5 (guide TCTGCAGAAATGTTCCCCGTT; chemistry not given here)” the value was 1.1%.

The same series, now with this note: Target Gene TRAC; tested crRNAs targeting human genes.
Turning to “gTRAC089 (guide AACTCAGGGTTGAGAAAACAG; chemistry not given here)”, the “% Indel” value came out at 0.7%.
As for “gTRAC090 (guide ACTCAGGGTTGAGAAAACAGC; chemistry not given here)”, the “% Indel” value came to 0.1%.

Still in this series, the particulars now being: tested crRNAs targeting human genes; target gene as given (Table 10).
On to “gTRBC2_11 (guide AGACTGTGGCTTCACCTCCGG; chemistry not given here)”, for which the “% Indel” value was found to be 19.97%.
Still for that read-out and setting: for “gTRBC2_10 (guide CAGACTGTGGCTTCACCTCCG; chemistry not given here)” the value was 0.16%; for “gU6_5 (guide ATATATCTTGTGGAAAGGACG; chemistry not given here)”, 0.39%.
Same read-out and setting: then “gTRBC2_19 (guide CACAGGTCAAGAGAAAGGATT; chemistry not given here)”, with 1.58%.
Same read-out and setting: for “gU6_4 (guide GCTTTATATATCTTGTGGAAA; chemistry not given here)” the value was 0.37%; for “gTRBC2_7 (guide CCCTGTTTTCTTTCAGACTGT; chemistry not given here)”, 0.09%; for “gU6_2 (guide GATTTCTTGGCTTTATATATC; chemistry not given here)”, 0.71%.
As to “gTRAC086 (guide CTCAACCCTGAGTTAAAACAC; chemistry not given here)”, the “% Indel” value amounted to 0.2%.
Same read-out and setting: for “gCARD11_1: spacer targeting CARD11, SEQ ID NO 1388, TAGTACCGCTCCTGGAAGGTT (chemistry not given here)” the value was 1.37%.
Same read-out and setting: then “gU6_1 (guide GTCCTTTCCACAAGATATATA; chemistry not given here)”, with 68.1%.
“gTRAC088 (guide GTCCTGAAGGTAGCTGTTTTC; chemistry not given here)”: the “% Indel” value is listed as 0.1%.
The same measure, in the same setting: for “gCD247_12: spacer targeting CD247, SEQ ID NO 89, CTAGCAGAGAAGGAAGAACCC (chemistry not given here)” the value was 70.64%.
Still for that read-out and setting: then “gTRAC006: spacer targeting TRAC, SEQ ID NO 988, TGAGGGTGAAGGATAGACGCT (chemistry not given here)”, with 81.8%; and “gTRBC2_8 (guide CTTTCAGACTGTGGCTTCACC; chemistry not given here)”, with 0.24%.
As for “gTRBC2_18 (guide CCTAGCAAGATCTCATAGAGG; chemistry not given here)”, the “% Indel” value is given as 0.37%.
As to “gTRBC2_9 (guide TTTCAGACTGTGGCTTCACCT; chemistry not given here)”, the “% Indel” value was 0.24%.
On to “gU6_7 (guide TGGAAAGGACGAAACACCGTG; chemistry not given here)”, for which the “% Indel” value was determined as 0.24%.
On the same count and under the same terms, for “gTRBC2_14 (guide CCAGCAAGGGGTCCTGTCTGC; chemistry not given here)” the value was 6.69%; for “gTRAC084 (guide GACTTTTCCCAGCTGACAGAT; chemistry not given here)”, 1.6%.
The same measure, in the same setting: for “gTRBC2_12: spacer targeting TRBC2, SEQ ID NO 1379, CCGGAGGTGAAGCCACAGTCT (chemistry not given here)” the value was 33.14%.
The same measure, in the same setting: for “gTRBC2_15 (guide CTAGGGAAGGCCACCTTGTAT; chemistry not given here)” the value was 21.74%; for “gTRAC085 (guide TCAACCCTGAGTTAAAACACA; chemistry not given here)”, 0.5%; for “gLCK1_3: spacer targeting LCK, SEQ ID NO 1401, ACCCATCAACCCGTAGGGATG (chemistry not given here)”, 16.21%.
For “gTRBC2_16 (guide TATGCCGTGCTGGTCAGTGCC; chemistry not given here)”, the “% Indel” value is reported as 0.2%.
The same measure, in the same setting: for “gPLCG1_2: spacer targeting PLCG1, SEQ ID NO 1403, CCTTTCTGCGCTTCGTGGTGT (chemistry not given here)” the value was 5.14%.
Same read-out and setting: then “gTRBC2_21 (guide GAGCTAGCCTCTGGAATCCTT; chemistry not given here)”, with 11.89%; and “gTRBC2_17 (guide CCATGGCCATCAGCACGAGGG; chemistry not given here)”, with 1.75%.
Same read-out and setting: then “gIL7R_3: spacer targeting IL7R, SEQ ID NO 1393, CAGGGGAGATGGATCCTATCT (chemistry not given here)”, with 87.87%; and “gTRBC2_13 (guide TCAACAGAGTCTTACCAGCAA; chemistry not given here)”, with 1.2%.
In the case of “gU6_3 (guide TTGGCTTTATATATCTTGTGG; chemistry not given here)”, the “% Indel” value is 2.83%.
The same measure, in the same setting: for “gTUBB_1 (guide AACCATGAGGGAAATCGTGCA; chemistry not given here)” the value was 2.61%; for “gDHODH_3 (guide TATGCTGAACACCTGATGCCG; chemistry not given here)”, 74.94%.
Still for that read-out and setting: for “gTRAC087 (guide TCCTGAAGGTAGCTGTTTTCT; chemistry not given here)” the value was 0.2%; for “gDHODH_1 (guide TTGCAGAAGCGGGCCCAGGAT; chemistry not given here)”, 0.6%; for “gU6_6 (guide TATATCTTGTGGAAAGGACGA; chemistry not given here)”, 0.39%.
The same measure, in the same setting: for “gDHODH_2 (guide TTGCAGAAGCGGGCCCAGGAT; chemistry not given here)” the value was 0.59%; for “gTUBB_3 (guide TTCTCTGTAGGTGGCAAATAT; chemistry not given here)”, 18.67%.
